# Measured values reported in patent US7179814B2, “Agents for controlling plant pests” (priority 1998, dated 2007).
# Read-outs that look alike come from different tables or passages of the source.
# Tests used:
# Fusarium culmorum = Fusarium culmorum test (wheat)/seed treatment; assay type: in vivo; details: 75 g/ha, dry seed dressing, approximately 3 weeks after sowing
# Experimental: The active compounds are applied as a dry dressing. They are prepared by extending the active compound in question with ground minerals to give a finely pulverulent mixture which ensures even distribution on the surface of the seeds.
# For the dressing, the infected seeds are shaken with the dressing in a closed glass bottle for 3 minutes.
# 2×100 seeds of the wheat are sown at a depth of 1 cm into standard soil, and the wheat is cultivated in a greenhouse at a temperature of approximately 18° C. and at a relative atmospheric humidity of approximately 95% in seed containers receiving 15 hours of light per day.
# The evaluation of the plants for symptoms is carried out approximately 3 weeks after sowding. 0% means an efficacy which corresponds to that of the control, whereas an efficacy of 100% means that no infection is observed.
# Pyrenophora teres = Pyrenophora teres test (barley)/protective; assay type: in vivo; details: single active compound
# Experimental: (§1) To produce a suitable preparation of active compound, 1 part by weight of active compound or active compound combination is mixed with the stated amounts of solvent and emulsifier, and the concentrate is diluted with water to the desired concentration, or a commercial formulation of active compound or active compound combination is diluted with water to the desired concentration.
# (§2) To test for protective activity, young plants are sprayed with the active compound preparation at the stated application rate. After the spray coating has dried on, the plants are sprayed with a conidia suspension of Pyrenophora teres. The plants remain in an incubation cabin at 20° C. and 100% relative atmospheric humidity for 48 hours.
# The plants are then placed in a greenhouse at a temperature of approximately 20° C. and a relative atmospheric humidity of approximately 80%.
# Evaluation is carried out 7 days after the inoculation. 0% means an efficacy which corresponds to that of the control, whereas an efficacy of 100% means that no infection is observed.
# [1] = system: green rice leaf hopper (Nephotettix cincticeps); assay: Nephotettix test (rice seedling dip); assay type: in vivo
# Experimental: (§3) To produce a suitable preparation of active compound, 1 part by weight of an active compound or an active compound combination is mixed with the stated amounts of solvent and emulsifier, and the concentrate is diluted with water to the desired concentration.
# Rice seedlings (Oryza sativa) are treated by being dipped into the active compound preparation of the desired concentration and are populated with the green rice leaf hopper (Nephotettix cincticeps) while the leaves are still moist.
# After the desired period of time, the kill in % is determined. 100% means that all the leaf hoppers have been killed; 0% means that none of the leaf hoppers have been killed.
# [2] = system: larvae of the mustard beetle (Phaedon cochleariae); assay: Phaedon larvae test (cabbage leaf dip); assay type: in vivo
# Experimental: as §3
# Cabbage leaves (Brassica oleracea) are treated by being dipped into the preparation of active compound of the desired concentration and are populated with larvae of the mustard beetle (Phaedon cochleariae) while the leaves are still moist.
# After the desired period of time, the kill in % is determined. 100% means that all beetle larvae have been killed; 0% means that none of the beetle larvae have been killed.
# [3] = system: caterpillars of the diamondback moth (Plutella xylostella); assay: Plutella test (cabbage leaf dip); assay type: in vivo
# Experimental: as §3
# Cabbage leaves (Brassica oleracea) are treated by being dipped into the preparation of active compound of the desired concentration and are populated with caterpillars of the diamondback moth (Plutella xylostella) while the leaves are still moist.
# After the desired period of time, the kill in % is determined 100% means that all caterpillars have been killed; 0% means that none of the caterpillars have been killed.
# [4] = system: Diabrotica balteata larvae in soil; assay: Critical concentration test/soil insects, Diabrotica balteata; assay type: in vivo; details: Diabrotica balteata, 168 h, 7 days after infestation, read-out: Kill in %
# Experimental: (§4) To produce a suitable preparation of active compound, 1 part by weight of the active compound or the active compound mixture is mixed with the stated amounts of solvent and emulsifier, and the concentrate is diluted with water to the desired concentration.
# (§5) The active compound preparation is mixed intimately with soil. Here, the concentration of the active compound in the preparation is almost irrelevant; only the amount by weight of active compound or active compound mixture per volume unit of soil, which is stated in ppm (mg/l), matters.
# Soil is filled into 0.5 l pots and these are allowed to stand at 20° C. Immediately after preparation, 5 pre-germinated maize corns are placed into each pot. After 2 days, the test insects are placed into the treated soil. After a further 7 days, the kill in % is determined. 100% means that all test insects have been killed; 0% means that none of the test insects have been killed.
# Puccinia recondita = assay: Puccinia test (wheat)/protective; assay type: in vivo; details: 62.5 g/ha, 10 days after inoculation
# Experimental: as §1
# as §2, with “Puccinia recondita.” for “Pyrenophora teres.”
# The plants are then placed in a greenhouse at a temperature of approximately 20° C. and a relative atmospheric humidity of 80% to promote the development of rust pustules.
# Evaluation is carried out 10 days after the inoculation. 0% means an efficacy which corresponds to that of the control, whereas an efficacy of 100% means that no infection is observed.
# [5] = system: Heliothis virescens caterpillars; assay: Heliothis virescens test (soya bean shoot dip); assay type: in vivo; details: concentration 0.00016 %
# Experimental: as §3
# Soya bean shoots (Glycine max) are treated by being dipped into the active compound preparation of the desired concentration and are populated with Heliothis virescens caterpillars while the leaves are still moist.
# After the desired period of time, the kill in % is determined. 100% means that all caterpillars have been killed; 0% means that none of the caterpillars have been killed.
# green peach aphid = assay: Myzus test (cabbage leaf dip); assay type: in vivo, Myzus (green peach aphid); details: concentration 0.00016 %
# Experimental: as §3
# Cabbage leaves (Brassica oleracea) which are heavily infested by the green peach aphid are treated by being dipped into the active compound preparation of the desired concentration.
# After the desired period of time, the kill in % is determined. 100% means that all aphids have been killed; 0% means that none of the aphids have been killed.
# [6] = system: Phaedon cochleariae larvae; assay: Critical concentration test/root-systemic action, Phaedon cochleariae; assay type: in vivo; details: 72 h, root-systemic, 3 days after infestation, read-out: Kill in %
# Experimental: as §4, §5
# Soil is filled into 250 ml pots and these are planted with cabbage (Brassica oleracea). The active compound or the active compound combination can thus be taken up by the plant roots from the soil and transported into the leaves.
# After 7 days, the leaves are populated with the abovementioned test animals. After a further 3 days, the kill in % is determined. 100% means that all test insects have been killed; 0% means that the number of insects which are still alive is the same as in the untreated control.
# Phytophthora infestans = assay type: in vivo; details: single active compound
smiles,measurement,setting,value
N#C/N=C1/SCCN1Cc1ccc(Cl)nc1 [formula (I)],Efficacy in %,Fusarium culmorum,0%
same,Efficacy in % calculated/found,Pyrenophora teres; 18.75 g/ha,20%
same,Efficacy in % calculated/found,"Pyrenophora teres; 62.5 g/ha, 7 days after inoculation",0%
same,Kill in %,[1]; concentration 0.000032 %,0%
same,Kill in %,[1]; concentration 0.00016 %,35%
same,Kill in %,[2]; concentration 0.00016 %,5%
same,Kill in %,[2]; concentration 0.0008 %,40%
same,Kill in %,[3]; concentration 0.0008 %,0%
same,Kill in %,[3]; concentration 0.004 %,60%
same,pest or weed control at 1.25 ppm,[4]; 1.25 ppm in soil,0%
same,pest or weed control at 2.5 ppm,[4]; 2.50 ppm in soil,40%
same,pest or weed control at 5 ppm,[4]; 5.00 ppm in soil,90%
same,Efficacy in %,Puccinia recondita,0%
same,Kill in %,[5],15%
same,Kill in %,green peach aphid,25%
same,pest or weed control at 2.5 ppm,[6]; 2.50 ppm in soil,0%
same,pest or weed control at 5 ppm,[6]; 5.00 ppm in soil,80%
same,pest or weed control at 10 ppm,[6]; 10.00 ppm in soil,95%
same,Efficacy in %,Phytophthora infestans; 10 g/ha,0%
same,Efficacy in %,Phytophthora infestans; 50 g/ha,11%
same,Efficacy in %,"Phytophthora infestans; 500 g/ha, 3 days after inoculation",46%
